Test [1] addresses Vascular endothelial growth factor receptor 1 (Homo sapiens, UniProt P17948). The experiment in a line: Inhibition of recombinant human N-terminal GST-tagged factor 10a cleavage site-fused Flt1 (K784 to I1338 residues) expressed in baculovirus infected insect Sf9 cells using poly-EY as substrate after 120 mins in presence of gamma33P-ATP by liquid scintillation spectrometry.
For test [2], the target named is Receptor tyrosine-protein kinase erbB-2 (Homo sapiens, UniProt P04626). The experiment in a line: Inhibition of recombinant human N-terminal GST His6-tagged thrombin cleavage site-fused ErbB2 kinase domain (Q679 to V1255 residues) expressed in baculovirus infected insect Sf9 cells using biotinylated poly-EY as substrate after 60 mins by alphascreen assay.
Test [3] deals with Vascular endothelial growth factor receptor 2 (Homo sapiens, UniProt P35968). The experiment in a line: Inhibition of recombinant human N-terminal GST-fused KDR (D807 to V1356 residues) expressed in baculovirus infected […] insect Sf9 cells using poly-EY as substrate after 240 mins by luciferase coupled chemiluminescence assay.
Another test deals with T1, Ephrin type-B receptor 4 (Homo sapiens, UniProt P54760).
T1 sequence (P54760 whole entry): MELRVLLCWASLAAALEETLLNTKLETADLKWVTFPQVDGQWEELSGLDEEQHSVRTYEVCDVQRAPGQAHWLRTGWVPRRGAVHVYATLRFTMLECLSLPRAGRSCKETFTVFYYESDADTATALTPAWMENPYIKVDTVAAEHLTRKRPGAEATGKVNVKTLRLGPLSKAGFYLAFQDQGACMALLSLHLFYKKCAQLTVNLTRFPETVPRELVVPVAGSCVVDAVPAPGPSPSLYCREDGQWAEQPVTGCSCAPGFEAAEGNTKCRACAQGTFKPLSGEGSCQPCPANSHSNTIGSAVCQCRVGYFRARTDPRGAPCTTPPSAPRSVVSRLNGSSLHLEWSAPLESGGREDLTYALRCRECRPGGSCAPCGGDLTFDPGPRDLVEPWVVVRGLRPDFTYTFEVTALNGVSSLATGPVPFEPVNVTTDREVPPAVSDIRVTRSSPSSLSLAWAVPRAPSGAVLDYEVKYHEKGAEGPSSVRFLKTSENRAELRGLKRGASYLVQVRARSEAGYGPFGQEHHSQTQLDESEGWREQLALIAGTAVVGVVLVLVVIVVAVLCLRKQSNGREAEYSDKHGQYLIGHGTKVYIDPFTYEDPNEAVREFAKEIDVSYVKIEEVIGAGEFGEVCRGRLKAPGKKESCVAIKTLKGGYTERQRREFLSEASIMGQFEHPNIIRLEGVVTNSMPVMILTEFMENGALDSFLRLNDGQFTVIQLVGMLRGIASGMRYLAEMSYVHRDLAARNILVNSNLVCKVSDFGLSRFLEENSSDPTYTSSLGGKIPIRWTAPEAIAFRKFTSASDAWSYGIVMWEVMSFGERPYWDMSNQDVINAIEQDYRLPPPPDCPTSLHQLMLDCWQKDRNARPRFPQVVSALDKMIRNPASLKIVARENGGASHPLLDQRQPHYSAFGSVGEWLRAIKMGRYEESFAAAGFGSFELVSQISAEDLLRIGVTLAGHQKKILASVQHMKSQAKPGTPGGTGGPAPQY
Kind of test: Inhibition of recombinant human N-terminal His6-tagged EphB4 kinase domain (E605 to E890 residues) expressed in baculovirus using poly-AEKY as substrate after 150 mins in presence of gamma33P-ATP by liquid scintillation spectrometry.

A further test has as its target Ephrin type-A receptor 2 (Homo sapiens, UniProt P29317). The experiment in a line: Inhibition of recombinant human N-terminal His6-tagged EphA2 (N598 to R890 residues) expressed in baculovirus using poly-EY as substrate after 180 mins by luciferase coupled chemiluminescence assay.

Sequence of Vascular endothelial growth factor receptor 2 (P35968 whole entry, the tested form may be a part): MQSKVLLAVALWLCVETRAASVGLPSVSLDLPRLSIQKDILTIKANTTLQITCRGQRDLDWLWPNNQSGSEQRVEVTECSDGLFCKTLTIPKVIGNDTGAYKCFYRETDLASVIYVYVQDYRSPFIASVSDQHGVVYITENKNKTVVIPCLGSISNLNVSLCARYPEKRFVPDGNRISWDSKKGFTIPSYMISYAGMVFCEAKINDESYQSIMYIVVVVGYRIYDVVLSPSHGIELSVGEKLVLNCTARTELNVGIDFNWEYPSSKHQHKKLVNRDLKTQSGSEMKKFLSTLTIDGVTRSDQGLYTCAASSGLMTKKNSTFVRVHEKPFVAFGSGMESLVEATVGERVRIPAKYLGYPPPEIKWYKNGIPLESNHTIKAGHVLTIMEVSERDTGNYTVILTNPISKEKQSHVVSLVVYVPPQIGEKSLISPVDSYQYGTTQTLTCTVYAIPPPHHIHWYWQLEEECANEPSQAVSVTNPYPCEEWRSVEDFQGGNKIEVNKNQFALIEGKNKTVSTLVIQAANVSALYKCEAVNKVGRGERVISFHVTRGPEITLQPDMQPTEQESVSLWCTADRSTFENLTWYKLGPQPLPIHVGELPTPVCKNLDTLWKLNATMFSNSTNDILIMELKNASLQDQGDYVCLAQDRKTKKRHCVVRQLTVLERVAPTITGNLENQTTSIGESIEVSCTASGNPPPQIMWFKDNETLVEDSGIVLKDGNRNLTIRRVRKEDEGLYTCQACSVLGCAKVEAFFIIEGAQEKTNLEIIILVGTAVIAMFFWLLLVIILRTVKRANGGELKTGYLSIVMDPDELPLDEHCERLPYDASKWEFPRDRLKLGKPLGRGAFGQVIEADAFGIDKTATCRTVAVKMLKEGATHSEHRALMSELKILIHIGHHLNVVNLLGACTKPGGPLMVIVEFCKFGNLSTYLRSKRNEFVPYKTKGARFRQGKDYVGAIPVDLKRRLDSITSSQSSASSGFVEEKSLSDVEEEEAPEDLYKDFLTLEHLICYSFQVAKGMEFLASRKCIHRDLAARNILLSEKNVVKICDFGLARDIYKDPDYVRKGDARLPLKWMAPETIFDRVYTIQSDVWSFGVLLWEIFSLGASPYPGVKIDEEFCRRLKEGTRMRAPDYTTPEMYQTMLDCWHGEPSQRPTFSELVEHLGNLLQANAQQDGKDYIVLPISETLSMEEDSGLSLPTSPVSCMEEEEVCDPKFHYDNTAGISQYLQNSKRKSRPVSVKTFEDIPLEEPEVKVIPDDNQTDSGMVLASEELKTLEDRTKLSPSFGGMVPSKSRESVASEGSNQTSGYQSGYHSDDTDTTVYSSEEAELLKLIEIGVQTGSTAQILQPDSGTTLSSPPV
Sequence of Vascular endothelial growth factor receptor 1 (P17948 whole entry, the tested form may be a part): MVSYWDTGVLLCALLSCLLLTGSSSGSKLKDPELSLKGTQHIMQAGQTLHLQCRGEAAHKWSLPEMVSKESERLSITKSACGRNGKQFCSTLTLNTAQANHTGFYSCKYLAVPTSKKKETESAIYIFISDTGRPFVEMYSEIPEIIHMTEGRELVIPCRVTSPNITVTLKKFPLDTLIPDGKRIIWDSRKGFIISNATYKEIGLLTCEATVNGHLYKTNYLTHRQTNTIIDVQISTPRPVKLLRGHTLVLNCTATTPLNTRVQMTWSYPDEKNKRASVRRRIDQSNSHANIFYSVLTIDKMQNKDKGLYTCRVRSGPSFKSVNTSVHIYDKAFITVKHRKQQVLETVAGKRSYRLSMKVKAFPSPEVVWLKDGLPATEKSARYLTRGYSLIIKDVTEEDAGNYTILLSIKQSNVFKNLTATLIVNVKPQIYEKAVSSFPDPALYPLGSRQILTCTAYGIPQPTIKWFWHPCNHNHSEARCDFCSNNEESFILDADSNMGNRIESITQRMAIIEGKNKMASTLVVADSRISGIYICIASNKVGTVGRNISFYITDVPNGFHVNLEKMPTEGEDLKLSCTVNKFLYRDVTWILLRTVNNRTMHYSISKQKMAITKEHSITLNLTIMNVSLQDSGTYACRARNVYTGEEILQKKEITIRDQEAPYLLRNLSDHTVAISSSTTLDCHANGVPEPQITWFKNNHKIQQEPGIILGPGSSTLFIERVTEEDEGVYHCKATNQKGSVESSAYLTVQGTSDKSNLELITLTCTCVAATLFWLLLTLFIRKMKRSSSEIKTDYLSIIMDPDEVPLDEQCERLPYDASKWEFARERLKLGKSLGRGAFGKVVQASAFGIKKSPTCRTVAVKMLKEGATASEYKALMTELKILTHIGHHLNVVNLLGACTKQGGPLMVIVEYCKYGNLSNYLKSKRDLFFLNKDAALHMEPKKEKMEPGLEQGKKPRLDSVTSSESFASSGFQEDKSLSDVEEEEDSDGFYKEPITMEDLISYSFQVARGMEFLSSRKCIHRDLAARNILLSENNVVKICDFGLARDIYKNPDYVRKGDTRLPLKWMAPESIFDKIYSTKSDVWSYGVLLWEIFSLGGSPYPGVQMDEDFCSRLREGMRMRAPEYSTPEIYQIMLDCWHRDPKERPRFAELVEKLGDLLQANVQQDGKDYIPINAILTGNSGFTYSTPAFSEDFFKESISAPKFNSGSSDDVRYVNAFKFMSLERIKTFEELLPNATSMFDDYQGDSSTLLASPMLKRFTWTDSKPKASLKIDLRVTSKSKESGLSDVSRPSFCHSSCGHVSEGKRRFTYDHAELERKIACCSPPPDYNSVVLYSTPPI
Sequence of Receptor tyrosine-protein kinase erbB-2 (P04626 whole entry, the tested form may be a part): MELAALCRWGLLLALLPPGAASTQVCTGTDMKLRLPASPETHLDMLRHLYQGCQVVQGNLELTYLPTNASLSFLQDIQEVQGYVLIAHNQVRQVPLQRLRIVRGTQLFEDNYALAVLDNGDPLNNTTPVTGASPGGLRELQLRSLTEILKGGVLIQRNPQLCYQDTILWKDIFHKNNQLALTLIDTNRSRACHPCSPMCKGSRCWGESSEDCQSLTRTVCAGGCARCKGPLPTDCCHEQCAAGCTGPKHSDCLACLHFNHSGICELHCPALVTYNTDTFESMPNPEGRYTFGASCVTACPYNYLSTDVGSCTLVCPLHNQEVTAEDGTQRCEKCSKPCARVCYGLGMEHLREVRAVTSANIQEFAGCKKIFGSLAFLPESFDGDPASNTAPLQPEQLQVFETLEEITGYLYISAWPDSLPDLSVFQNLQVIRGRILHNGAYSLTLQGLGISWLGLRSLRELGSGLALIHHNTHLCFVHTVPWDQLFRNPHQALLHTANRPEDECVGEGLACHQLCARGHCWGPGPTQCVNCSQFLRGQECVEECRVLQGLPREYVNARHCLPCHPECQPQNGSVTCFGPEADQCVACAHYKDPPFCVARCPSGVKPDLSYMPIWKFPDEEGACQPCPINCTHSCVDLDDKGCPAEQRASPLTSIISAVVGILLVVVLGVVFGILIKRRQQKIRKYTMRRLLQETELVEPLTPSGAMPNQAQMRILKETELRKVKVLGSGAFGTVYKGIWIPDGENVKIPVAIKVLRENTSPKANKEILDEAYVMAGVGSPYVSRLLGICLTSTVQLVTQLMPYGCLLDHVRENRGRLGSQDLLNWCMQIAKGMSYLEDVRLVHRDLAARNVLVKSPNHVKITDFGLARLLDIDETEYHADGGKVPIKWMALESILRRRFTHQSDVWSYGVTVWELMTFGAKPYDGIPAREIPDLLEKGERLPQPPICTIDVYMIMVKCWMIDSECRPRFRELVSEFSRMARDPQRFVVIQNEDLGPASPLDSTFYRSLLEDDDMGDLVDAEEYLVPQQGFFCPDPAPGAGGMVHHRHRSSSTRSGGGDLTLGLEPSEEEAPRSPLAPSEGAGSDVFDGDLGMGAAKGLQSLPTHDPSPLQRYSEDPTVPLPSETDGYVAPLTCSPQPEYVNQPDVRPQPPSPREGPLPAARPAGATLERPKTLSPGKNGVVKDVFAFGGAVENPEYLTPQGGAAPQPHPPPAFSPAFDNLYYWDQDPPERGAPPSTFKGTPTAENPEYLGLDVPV
Sequence of Ephrin type-A receptor 2 (P29317 whole entry, the tested form may be a part): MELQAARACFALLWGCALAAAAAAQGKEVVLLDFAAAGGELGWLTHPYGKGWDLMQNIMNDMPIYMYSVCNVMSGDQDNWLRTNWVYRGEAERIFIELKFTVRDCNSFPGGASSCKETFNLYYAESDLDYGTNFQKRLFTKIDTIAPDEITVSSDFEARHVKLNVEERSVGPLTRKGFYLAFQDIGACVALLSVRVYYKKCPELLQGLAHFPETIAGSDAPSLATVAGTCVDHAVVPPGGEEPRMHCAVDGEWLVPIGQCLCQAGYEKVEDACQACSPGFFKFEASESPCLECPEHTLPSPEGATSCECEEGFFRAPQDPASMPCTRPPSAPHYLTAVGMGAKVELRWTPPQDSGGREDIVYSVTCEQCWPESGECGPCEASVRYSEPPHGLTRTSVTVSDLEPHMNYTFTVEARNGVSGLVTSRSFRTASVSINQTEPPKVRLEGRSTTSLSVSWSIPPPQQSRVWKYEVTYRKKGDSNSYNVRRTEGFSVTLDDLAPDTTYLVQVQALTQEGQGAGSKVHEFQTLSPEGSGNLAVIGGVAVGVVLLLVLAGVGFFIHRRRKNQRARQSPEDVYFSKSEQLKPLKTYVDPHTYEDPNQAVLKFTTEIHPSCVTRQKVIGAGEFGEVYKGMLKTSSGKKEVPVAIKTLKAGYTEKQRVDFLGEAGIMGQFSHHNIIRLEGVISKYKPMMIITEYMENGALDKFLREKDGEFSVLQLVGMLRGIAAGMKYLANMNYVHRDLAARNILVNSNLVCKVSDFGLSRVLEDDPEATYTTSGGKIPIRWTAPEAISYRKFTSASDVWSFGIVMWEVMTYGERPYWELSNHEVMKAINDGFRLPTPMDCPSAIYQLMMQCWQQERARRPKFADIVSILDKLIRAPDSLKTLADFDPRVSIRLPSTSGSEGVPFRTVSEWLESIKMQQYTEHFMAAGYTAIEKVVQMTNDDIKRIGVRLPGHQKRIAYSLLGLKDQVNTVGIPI

Consider `COc1cc2c(Nc3ccc(Cl)c(Cl)c3)ncnc2cc1OC1C[C@@H]2CN(C)C[C@@H]2C1` (stereo not given in full), for which the IC50 in test [1] lay in the range of 1 to 20 µM; in test [2], 0.05 to 1 µM; in test [3], 0.05 to 1 µM; at Ephrin type-B receptor 4 it was 0.05 to 1 µM; at Ephrin type-A receptor 2 it was 0.05 to 1 µM.
For `COc1cc2c(Nc3ccc(Cl)c(Cl)c3F)ncnc2cc1OC[C@@H]1CN2CCC[C@H]2C(=O)N1C`, the half-inhibitory concentration (IC50) was 0.05 to 1 µM in test [1]; 1 to 20 µM in test [2]; 0.05 to 1 µM in test [3]; below 0.05 µM at Ephrin type-B receptor 4; 0.05 to 1 µM at Ephrin type-A receptor 2.
Consider `COc1cc2c(Nc3ccc(Cl)c(Cl)c3F)ncnc2cc1OC[C@@H]1C[C@@H]2CN(C)C[C@@H]2C1` [TESEVATINIB], for which the 50% inhibitory concentration (IC50) in test [1] is 0.05 to 1 µM; in test [2], below 0.05 µM; in test [3], below 0.05 µM; at Ephrin type-B receptor 4, below 0.05 µM; on Ephrin type-A receptor 2 it was below 0.05 µM.

(Values after ChEMBL document CHEMBL3882729, “Receptor-type kinase modulators and methods of use” (2009).)
